Measured values from patent US8394776B2, “Use of ursolic acid saponin,oleanolic acid saponin in preparation of increasing leucocytes and/or platelet medicine” (Chengdu Di'Ao Jiuhong Pharmaceutical Factor, priority 2007, dated 2013).

Legend:
[1] = system: bone marrow mononuclear cell (BMMNC); experiment: Monocytic proliferation in bone marrow of mice cultured in vitro (SRB method); assay type: cell-based, KunMing mice; details: 1 μg/ml; cultured 5 days; versus blank control
Description: 15-20 KunMing mice (purchased from Laboratory Animal Center of Zhengzhou University, Henan) of either sex were killed by cervical vertebral dislocation. Bilateral thighbones were isolated and caput femoris was cut off. The marrow was washed repeatedly with serum-free RPMI1640 (Gibco Corp.), the wash solution containing marrow cells was collected, sucked and blew repeatedly with a pipette to make the cells disperse. After standing for a moment, the supernatant was sucked up and centrifugated at 100 g for 3 min to collect the cell pellet. The cells were resuspended in a culture media and brought to a volume of 5 ml. The cell suspension was added to the upper layer of a centrifugal tube containing 5 ml of a lymphocyte separation medium of mice and centrifugated at 400 g for 30 min. The milk-white bone marrow mononuclear cell (BMMNC) layer in the middle of the interface was collected and washed with serum-free medium RPMI1640 for three times to obtain a BMMNC suspension, which was inoculated into a 96-well plate at forty thousand per well after counting. Positive drugs rhG-CSF (recombinant granulocyte colony-stimulating factor, manufactured by QI LU Pharmaceutical Co., LTD., Shandong) or test samples of different concentrations were added, and meanwhile a blank control group without drug was established. They were cultured in a 5% CO2 incubator at 37 for 5 days. Cell proliferation was measured by a conventional SRB (Sigma) method in which OD at 490 nm was measured after being dyed with SRB. The growth rates of cell proliferation after drug treatment were calculated (Growth rate of cell proliferation=experimental group-blank control group/blank control group*100%).

platelets (PLT) = experiment: Cyclophosphamide-induced leukopenia in mice: platelets (PLT); assay type: in vivo, Kunming mice; details: Experimental Example 3, 0.8 mg/kg; for difference in increasing platelets compared with G-22 (in words): day 5 after modeling
Experimental: (§1) Further, in vivo experiments were carried out on the compounds involved in the present invention using animal models of cyclophosphamide-induced leukopenia in mice. Experimental methods are briefed as follows: Healthy Kunming mice, of which half were male and the other half were female, were divided into groups, each group incuding 18 mice, and those mice weighing 18-22 g were selected and divided into groups randomly according to their body weights. Each group was given a different drug, wherein the negative control group and model control group were given physiological saline of the same volume, and the positive control group was treated with granulocyte colony-stimulating factors 40 μg/kg through subcutaneous injection (injection volume: 0.1 ml/10 g). After administration for 3 days, except the negative control group, other treatment groups were treated with 100 mg/kg cyclophosphamide (CY) through lumbar injection once a day for three days to cause a decrease of leukocytes in mice. A drop of blood (20 μl) was taken from posterior orbital venous plexus to detect the hemogram to observe the situation of leukocytes and platelets on day 1, day 3 and/or day 5 after the final lumbar injection of cyclophosphamide (i.e day 1, day 3 and/or day 5 after modeling) (Note: Each treatment group was administrated incessantly). The mice were killed on day 5 after the final lumbar injection of cyclophosphamide (i.e day 5 after modeling), and the leukocytes (WBC) and platelets (PLT) of the hemogram index were counted.
(§2) The purpose of this experiment is to study the effect of G-1, G-3, G-11 and G-12 of ursolic acid saponin and oleanolic acid saponin in increasing platelets, and to observe whether G-11 and G-12 of oleanolic acid saponin have an effect in increasing leukocytes.

leukocytes (WBC) = experiment: Cyclophosphamide-induced leukopenia in mice: leukocytes (WBC); assay type: in vivo, Kunming mice; details: Experimental Example 3; 0.8 mg/kg
Experimental: as §1
This experiment mainly studies the effect of G-1, G-6 and G-8 of ursolic acid saponin in increasing leukocytes, and compares the therapeutic effects of aglycon of ursolic acid and oleanolic acid and of the compound G-22 which has been disclosed by a patent.
as §2

Row | Molecule | Growth Rate of Proliferation %, 1 μg/ml [1] | also measured
1 | CC1(C)CC[C@]2(C(=O)O)CC[C@]3(C)C(=CC[C@@H]4[C@@]5(C)CC[C@H](O[C@@H]6OC[C@@H](O)[C@@H](O)[C@@H]6O)C(C)(C)[C@@H]5CC[C@]43C)[C@@H]2C1 [Sample G-16, 3-O-(α-L-arabopyranosyl) oleanolic acid] | 21.6% | 
2 | 3-O-(β-D-glucopyranosyl) oleanolic acid [Sample G-13] | 21.6% | 
3 | CC1CCC2(C(=O)O)CCC3(C)C(=CCC4C5(C)CCC(OC6OC(CO)C(O)C(O)C6O)C(C)(C)C5CCC43C)C2C1C [Sample G-10, 3-O-(β-D-galactopyranosyl) ursolic acid] | 24.2% | 
4 | CC1(C)CCC2(C(=O)OC3OC(COC4OC(CO)C(O)C(O)C4O)C(O)C(O)C3O)CCC3(C)C(=CCC4C5(C)CCC(O)C(C)(C)C5CCC43C)C2C1 (stereo not drawn) [Sample G-18, oleanolic acid-28-O-(β-gentiobiosyl) ester] | 19.0% | 
5 | CC1(C)CC[C@]2(C(=O)O)CC[C@]3(C)C(=CC[C@@H]4[C@@]5(C)CC[C@H](O[C@@H]6O[C@H](C(=O)O)[C@@H](O)[C@H](O)[C@H]6O)C(C)(C)[C@@H]5CC[C@]43C)[C@@H]2C1 [Sample G-19, 3-O-(β-D-glucuronopyranosyl) oleanolic acid] | 20.9% | 
6 | C[C@H]1[C@H](C)CC[C@]2(C(=O)O)CC[C@]3(C)C(=CC[C@@H]4[C@@]5(C)CC[C@H](O[C@@H]6O[C@@H](C)[C@H](O)[C@@H](O)[C@H]6O)C(C)(C)[C@@H]5CC[C@]43C)[C@H]12 [Sample G-9, 3-O-(α-L-rhamnopyranosyl) ursolic acid] | 23.4% | 
7 | CC1CCC2(C(=O)OC3OC(CO)C(OC4OC(CO)C(O)C(O)C4O)C(O)C3O)CCC3(C)C(=CCC4C5(C)CCC(OC6OCC(O)C(O)C6O)C(C)(C)C5CCC43C)C2C1C [Sample G-4, 3-O-(α-L-arabopyranosyl) ursolic acid-28-O-(β-cellobiosyl) ester] | 18.0% | 
8 | CC1(C)CC[C@]2(C(=O)O)CC[C@]3(C)C(=CC[C@@H]4[C@@]5(C)CC[C@H](O[C@@H]6OC[C@@H](O)[C@H](O)[C@H]6O)C(C)(C)[C@@H]5CC[C@]43C)[C@@H]2C1 [Sample G-15, 3-O-(β-D-xylopyranosyl) oleanolic acid] | 20.6% | 
9 | CC1(C)CCC2(C(=O)O)CCC3(C)C(=CCC4C5(C)CCC(OC6OC(CO)C(O)C(O)C6O)C(C)(C)C5CCC43C)C2C1 [Sample G-14, 3-O-(β-D-galactopyranosyl) oleanolic acid] | 19.9% | 
10 | CC1CCC2(C(=O)O)CCC3(C)C(=CCC4C5(C)CCC(OC6OC(CO)C(O)C(O)C6O)C(C)(C)C5CCC43C)C2C1C [Sample G-7, 3-O-(β-D-glucopyranosyl) ursolic acid] | 23.7% | 
11 | CC1CCC2(C(=O)OC3OC(C)C(O)C(O)C3O)CCC3(C)C(=CCC4C5(C)CCC(OC6OC(C)C(O)C(O)C6O)C(C)(C)C5CCC43C)C2C1C [Sample G-2, 3-O-(α-L-rhamnopyranosyl) ursolic acid-28-O-(α-L-rhamnopyranosyl) ester] | 19.9% | 
12 | CC1(C)CC[C@]2(C(=O)O[C@@H]3O[C@H](CO)[C@@H](O)[C@H](O)[C@H]3O)CC[C@]3(C)C(=CC[C@@H]4[C@@]5(C)CC[C@H](O)C(C)(C)[C@@H]5CC[C@]43C)[C@@H]2C1 [Sample G-17, oleanolic acid-28-O-(β-D-glucopyranosyl) ester] | 20.6% | 
13 | ursolic acid-28-O-(α-L-arabopyranosyl) ester [Sample G-5] | 20.1% | 
14 | CC1(C)CC[C@]2(C(=O)O[C@@H]3OC[C@H](O)[C@H](O)[C@H]3O)CC[C@]3(C)C(=CC[C@@H]4[C@@]5(C)CC[C@H](O[C@@H]6OC[C@H](O)[C@H](O)[C@H]6O)C(C)(C)[C@@H]5CC[C@]43C)[C@@H]2C1 [Sample G-11, 3-O-(α-L-arabopyranosyl) oleanolic acid-28-O-(α-L-arabopyranosyl) ester] | 26.8% | effect in increasing platelets (in words) (platelets (PLT)): effect in increasing platelets is obvious on day 1 and day 5; platelets, Day 1 after modelng (platelets (PLT)): 465.00 ± 99.28; platelets, Day 5 after modeling (platelets (PLT)): 385.73 ± 198.30**★; difference in increasing platelets compared with G-22 (in words) (platelets (PLT)): significant difference on day 5 compared with G-22; effect in increasing leukocytes (in words) (leukocytes (WBC)): obvious effect in increasing leukocytes at day 1 after modeling; leukocytes, Day 1 after modeling (leukocytes (WBC)): 0.94 ± 0.77; leukocytes, Day 5 after modeling (leukocytes (WBC)): 7.55 ± 4.28
15 | CC1(C)CC[C@]2(C(=O)O[C@@H]3O[C@H](CO)[C@@H](O)[C@H](O)[C@H]3O)CC[C@]3(C)C(=CC[C@@H]4[C@@]5(C)CC[C@H](O[C@@H]6O[C@H](CO)[C@@H](O)[C@H](O)[C@H]6O)C(C)(C)[C@@H]5CC[C@]43C)[C@@H]2C1 [Sample G-12, 3-O-(β-D-glucopyranosyl) oleanolic acid-28-O-(β-D-glucopyranosyl) ester] | 25.4% | effect in increasing platelets (in words) (platelets (PLT)): effect in increasing platelets is obvious on day 1 and day 5; platelets, Day 1 after modelng (platelets (PLT)): 456.88 ± 77.20; platelets, Day 5 after modeling (platelets (PLT)): 390.86 ± 203.71**★★; difference in increasing platelets compared with G-22 (in words) (platelets (PLT)): significant difference on day 5 compared with G-22; effect in increasing leukocytes (in words) (leukocytes (WBC)): obvious effect in increasing leukocytes at day 1 after modeling; leukocytes, Day 1 after modeling (leukocytes (WBC)): 1.01 ± 0.55; leukocytes, Day 5 after modeling (leukocytes (WBC)): 5.48 ± 4.39
